From PMC6746701, “A phyB-PIF1-SPA1 kinase regulatory complex promotes photomorphogenesis in Arabidopsis” (Nature Communications, 2019)

Columns and labels:
phyA = target: T1, phyA (Arabidopsis thaliana, UniProt P14712); test: in vitro kinase assay, autoradiogram; assay type: biochemical; conditions: PIF1 as co-substrate, 10 mM MgCl2, pH 7.5, 28 °C; labelled compound (gamma-32P)
T1 construct: holoprotein purified from Saccharomyces cerevisiae
T1 sequence (P14712 1-1122): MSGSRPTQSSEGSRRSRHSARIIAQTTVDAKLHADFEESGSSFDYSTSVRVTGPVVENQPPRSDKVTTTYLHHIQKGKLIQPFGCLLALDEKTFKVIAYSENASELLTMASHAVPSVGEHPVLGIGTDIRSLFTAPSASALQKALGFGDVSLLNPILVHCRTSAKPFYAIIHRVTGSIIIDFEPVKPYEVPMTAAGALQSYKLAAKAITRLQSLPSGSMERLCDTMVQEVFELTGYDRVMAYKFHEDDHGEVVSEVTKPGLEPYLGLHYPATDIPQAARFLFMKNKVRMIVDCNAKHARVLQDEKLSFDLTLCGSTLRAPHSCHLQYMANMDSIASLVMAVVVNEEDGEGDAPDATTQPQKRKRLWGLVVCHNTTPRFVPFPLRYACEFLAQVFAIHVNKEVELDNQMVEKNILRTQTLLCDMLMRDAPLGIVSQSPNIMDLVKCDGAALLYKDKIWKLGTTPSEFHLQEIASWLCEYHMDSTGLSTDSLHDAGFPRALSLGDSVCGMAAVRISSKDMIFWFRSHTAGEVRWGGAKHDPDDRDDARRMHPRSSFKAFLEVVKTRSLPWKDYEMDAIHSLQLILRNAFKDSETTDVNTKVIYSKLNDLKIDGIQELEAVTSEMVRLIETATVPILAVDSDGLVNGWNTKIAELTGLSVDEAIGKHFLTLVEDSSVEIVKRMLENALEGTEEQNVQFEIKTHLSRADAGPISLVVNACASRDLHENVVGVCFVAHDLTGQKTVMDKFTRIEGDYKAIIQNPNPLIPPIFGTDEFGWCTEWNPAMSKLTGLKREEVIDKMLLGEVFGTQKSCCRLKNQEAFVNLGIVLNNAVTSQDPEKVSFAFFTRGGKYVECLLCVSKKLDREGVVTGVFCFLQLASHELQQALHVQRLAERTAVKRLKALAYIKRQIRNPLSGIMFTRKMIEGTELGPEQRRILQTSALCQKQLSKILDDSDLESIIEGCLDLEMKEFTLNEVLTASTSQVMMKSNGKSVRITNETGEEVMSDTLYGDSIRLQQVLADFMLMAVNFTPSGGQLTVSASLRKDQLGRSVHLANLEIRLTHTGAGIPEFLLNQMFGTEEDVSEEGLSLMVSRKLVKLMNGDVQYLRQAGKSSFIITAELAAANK

full-length SPA1 = target: T2, full-length SPA1 (Arabidopsis thaliana, UniProt Q9SYX2); test: in vitro kinase assay, autoradiogram; assay type: biochemical; conditions: GST-PIF1 as co-substrate, ATP 0.004-2.5 mM, 10 mM MgCl2, pH 7.5, 28 °C; labelled compound (gamma-32P)
T2 construct: full length, strep-tagged (3x Flag also cloned), Pichia pastoris GS115, tags kept
T2 sequence (Q9SYX2 1-1029): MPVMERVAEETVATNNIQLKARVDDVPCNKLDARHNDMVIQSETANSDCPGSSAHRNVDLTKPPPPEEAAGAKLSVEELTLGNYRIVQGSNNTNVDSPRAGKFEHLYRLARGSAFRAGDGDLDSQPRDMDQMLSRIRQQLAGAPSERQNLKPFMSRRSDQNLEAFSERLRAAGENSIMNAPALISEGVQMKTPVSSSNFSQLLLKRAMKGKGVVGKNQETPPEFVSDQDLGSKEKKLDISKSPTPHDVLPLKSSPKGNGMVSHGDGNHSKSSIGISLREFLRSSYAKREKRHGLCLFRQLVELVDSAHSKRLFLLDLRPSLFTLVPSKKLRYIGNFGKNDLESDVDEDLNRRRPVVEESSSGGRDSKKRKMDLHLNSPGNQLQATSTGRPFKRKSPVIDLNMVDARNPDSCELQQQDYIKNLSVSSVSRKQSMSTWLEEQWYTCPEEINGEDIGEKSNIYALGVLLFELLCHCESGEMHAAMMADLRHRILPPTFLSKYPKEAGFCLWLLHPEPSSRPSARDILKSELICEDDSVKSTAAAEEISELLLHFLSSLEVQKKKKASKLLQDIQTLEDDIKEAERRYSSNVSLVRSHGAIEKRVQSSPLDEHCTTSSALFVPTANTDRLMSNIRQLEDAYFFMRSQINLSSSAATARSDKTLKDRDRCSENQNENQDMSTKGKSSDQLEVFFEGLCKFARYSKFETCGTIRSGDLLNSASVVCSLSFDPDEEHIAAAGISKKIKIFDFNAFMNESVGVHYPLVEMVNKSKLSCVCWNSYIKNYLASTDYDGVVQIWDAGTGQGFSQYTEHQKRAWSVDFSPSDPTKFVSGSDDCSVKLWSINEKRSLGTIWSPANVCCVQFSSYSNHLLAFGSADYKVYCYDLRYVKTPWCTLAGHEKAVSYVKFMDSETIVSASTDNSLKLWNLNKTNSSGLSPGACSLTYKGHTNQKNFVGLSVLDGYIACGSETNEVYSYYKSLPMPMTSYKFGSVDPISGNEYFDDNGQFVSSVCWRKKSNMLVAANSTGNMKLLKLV

Nc1ncnc2c1ncn2[C@@H]1O[C@H](COP(=O)(O)OP(=O)(O)OP(=O)(O)O)[C@@H](O)[C@H]1O [ATP]
in vitro kinase assay, autoradiogram (phyA): In this assay, both phyA and phyB phosphorylated PIF1 in vitro
in vitro kinase assay, autoradiogram (full-length SPA1): SPA1 also phosphorylated PIF1 in an ATP concentration- and time-dependent manner
